System: NF-κ B
Assay: Inhibitory activity of NF-κ B activation, luciferase reporter assay in HepG2 under TNF-α stimulation
Type: cell-based, human
Settings: HepG2, TNF-α (40 ng/ml), 4 hours; for inhibition at 1 µg/mL / inhibition at 10 µg/mL: Homo sapiens; for Inhibitory Ratio of NF-κ B Activation(%) Drug Concentration 1 μg/mL / inhibition at 1 µg/mL: 1 μg/mL; for inhibition at 1 µg/mL: read-out: Inhibitory Ratio of NF-κ B Activation(%) Drug Concentration 1 μg/mL; for Inhibitory Ratio of NF-κ B Activation(%) Drug Concentration 10 μg/mL / inhibition at 10 µg/mL: 10 μg/mL; for inhibition at 10 µg/mL: read-out: Inhibitory Ratio of NF-κ B Activation(%) Drug Concentration 10 μg/mL
Procedure: Using a transfection reagent(Effectene; QIAGEN), the human hepatoma cell strain HepG2 was transfected with a plasmid(pNF κ B-Luc Reporter Plasmid; […]) which is integrated with an oligonucleotide having five tandem copies of NF-κ B binding sequences([…]) on a upstream region of firefly luciferase gene(Luc) according to the QIAGEN's protocol, and the cells were incubated for 6 to 24 hours. After the addition of TNF-α (40 ng/ml) in the presence or absence of a test compound, the cells were incubated for 4 hours, and intracellular luciferase activity was measured by using PicaGene LT (TOYO INK MFG Co., Ltd.) and a chemical luminescence measurement apparatus ([…]luor Plus; TECAN). The inhibitory ratio was measured as a ratio relative to the value of a luciferase activity in the absence of the test compound.

Row | SMILES | Inhibitory Ratio of NF-κ B Activation(%) Drug Concentration 1 μg/mL [%] | Inhibitory Ratio of NF-κ B Activation(%) Drug Concentration 10 μg/mL [%] | inhibition at 1 µg/mL [%] | inhibition at 10 µg/mL [%]
1 | O=C(Nc1cc(C(F)(F)F)cc(C(F)(F)F)c1)c1cccc(Cl)c1O [Compound No. 64] | 84.9 | 94.1 |  | 
2 | O=C(Nc1cc(F)cc(F)c1)c1cc(Br)ccc1O [Compound No. 123] | 91.8 | 96.8 |  | 
3 | CC(C)(C)c1ccc(C(C)(C)C)c(NC(=O)c2cc(Cl)ccc2O)c1 [Compound No. 134] | 89.1 | 96.3 |  | 
4 | O=C(Nc1nc(C(F)(F)F)c(-c2ccccc2)s1)c1cc(Br)ccc1O [Compound No. 213] | 85.1 | 89.4 |  | 
5 | Cc1sc(NC(=O)c2cc(Br)ccc2O)nc1-c1ccccc1 [Compound No. 192] | 83.6 | 94.4 |  | 
6 | COc1cc(NC(=O)c2cc(Cl)ccc2O)cc(C(F)(F)F)c1 [Compound No. 105] | 94.6 | 97.5 |  | 
7 | COC(=O)c1cc(NC(=O)c2cc(Cl)ccc2O)cc(C(F)(F)F)c1 [Compound No. 108, 5-chloro-2-hydroxy-N-[3-methoxycarbonyl-5-(trifluoromethyl)phenyl]benzamide] |  |  | 41.5 | 88.4
8 | O=C(Nc1nc(-c2ccccc2)c(C(=O)c2ccccc2)s1)c1cc(Br)ccc1O [Compound No. 215, 5-Bromo-N-(5-benzoyl-4-phenylthiazol-2-yl)-2-hydroxybenzamide] |  |  | 90.7 | 97.3
9 | O=C(Nc1cc(C(F)(F)F)cc(C(F)(F)F)c1)c1cc(NC(=S)Nc2ccccc2)ccc1O [Compound No. 47] | 51.8 | 97.2 |  | 
10 | CC(=O)Oc1ccc(Cl)cc1C(=O)Nc1nc(C(C)(C)C)c(C(=O)C(C)(C)C)s1 [Compound No. 200] | 95.0 | 97.7 |  | 
11 | N#CC(C#N)=Cc1ccc(O)c(C(=O)Nc2cc(C(F)(F)F)cc(C(F)(F)F)c2)c1 [Compound No. 16, N-[3,5-Bis(trifluoromethyl)phenyl]-5-(2,2-dicyanoethen-1-yl)-2-hydroxybenzamide] |  |  | 42.7 | 99.4
12 | COc1ccc(C(=O)Nc2cc(C(F)(F)F)cc(C(F)(F)F)c2)c(O)c1 [Compound No. 65] | 83.3 | 89.8 |  | 
13 | Cc1ccc(C(F)(F)F)cc1NC(=O)c1cc(Cl)ccc1O [compound 92] | 93.8 | 97.9 |  | 
14 | O=C(Nc1cc(F)ccc1F)c1cc(Cl)ccc1O [Compound No. 179] | 92.5 | 93.4 |  | 
15 | O=C(Nc1cc(C(F)(F)F)cc(C(F)(F)F)c1)c1cc(F)ccc1O [compound 3] | 81.5 | 94.3 |  | 
16 | COc1cc(NC(=O)c2cc(Br)ccc2O)cc(OC)c1 [Compound No. 143] | 38.3 | 96.8 |  | 
17 | O=C(Nc1cc(C(F)(F)F)ccc1Cl)c1cc([N+](=O)[O-])ccc1O [Compound No. 99] | 54.3 | 98.0 |  | 
18 | Cc1cc(Oc2ccc(C(F)(F)F)cc2NC(=O)c2cc(Cl)ccc2O)cc(C)c1Cl [Compound No. 115] | 90.7 | 98.4 |  | 
19 | CN(C)S(=O)(=O)c1ccc(O)c(C(=O)Nc2cc(C(F)(F)F)cc(C(F)(F)F)c2)c1 [Compound No. 41, N-[3,5-Bis(trifluoromethyl)phenyl]-5-dimethylsufamoyl-2-hydroxybenzamide] | 42.2 | 95.9 |  | 
20 | O=C(O)Cc1sc(NC(=O)c2cc(Br)ccc2O)nc1-c1ccccc1 [Compound No. 210] |  | 72.1 |  | 
21 | CC(C)c1nc(NC(=O)c2cc(Br)ccc2O)sc1-c1ccccc1 [Compound No. 197, 5-Bromo-N-(4-isopropyl-5-phenylthiazol-2-yl)-2-hydroxybenzamide] |  |  | 70.1 | 96.1

Row | SMILES | Inhibitory Ratio of NF-κ B Activation(%) Drug Concentration 1 μg/mL [%] | Inhibitory Ratio of NF-κ B Activation(%) Drug Concentration 10 μg/mL [%] | inhibition at 1 µg/mL [%] | inhibition at 10 µg/mL [%]
22 | O=C(Nc1cc(C(F)(F)F)ccc1N1CCC(C(F)(F)F)CC1)c1cc(Cl)ccc1O [Compound No. 112] | 96.5 | 95.7 |  | 
23 | CCc1nc(NC(=O)c2cc(Br)ccc2O)sc1-c1ccccc1 [Compound No. 196] | 28.8 | 87.6 |  | 
24 | CCOC(=O)c1sc(NC(=O)c2cc(Br)ccc2O)nc1C(C)(C)C [Compound No. 202, 2-(5-Bromo-2-hydroxybenzoyl)amino-4-[(1,1-dimethyl)ethyl]thiazole-5-carboxylic acid ethyl ester] |  |  | 84.5 | 92.4
25 | O=C(Nc1nc(-c2ccccc2)c(C(=O)NCCc2ccccc2)s1)c1cc(Br)ccc1O [Compound No. 223] | 33.3 | 60.4 |  | 
26 | O=C(Nc1cc(C(F)(F)F)cc(C(F)(F)F)c1)c1cc(N=Nc2ccc(S(=O)(=O)Nc3ccccn3)cc2)ccc1O [Compound No. 49] | 19.4 | 89.1 |  | 
27 | CCOC(=O)c1sc(NC(=O)c2cc(-c3cccs3)ccc2O)nc1-c1ccccc1 [Compound No. 230, 2-[2-Hydroxy-5-(2-thienyl)benzoyl]amino-4-phenylthiazole-5-carboxylic acid ethyl ester] |  |  | 40.8 | 84.8
28 | O=C(Nc1nc(-c2ccco2)c(-c2ccco2)o1)c1cc(Br)ccc1O [Compound No. 236, 5-Bromo-N-[4,5-bis(furan-2-yl)oxazol-2-yl]-2-hydroxybenzamide] |  |  | 21.4 | 56
29 | O=C(Nc1cc(C(F)(F)F)ccc1[N+](=O)[O-])c1cc(Cl)ccc1O [Compound No. 91] | 86.3 | 96.7 |  | 
30 | CCNC(=O)c1sc(NC(=O)c2cc(Br)ccc2O)nc1-c1ccccc1 [Compound No. 221] | 51.9 | 84.0 |  | 
31 | Cc1ccc(C(=O)Nc2cc(C(F)(F)F)cc(C(F)(F)F)c2)c(O)c1 [Compound No. 53] | 93.3 | 94.5 |  | 
32 | CC(=O)Oc1ccc(Cl)cc1C(=O)Nc1cc(C(F)(F)F)ccc1Cl [Compound No. 89] | 96.7 | 97.4 |  | 
33 | O=C(Nc1cc([N+](=O)[O-])cc([N+](=O)[O-])c1)c1cc(Br)ccc1O [Compound No. 133] | 91.0 | 95.6 |  | 
34 | O=C(Nc1cc(C(F)(F)F)ccc1N1CCCC1)c1cc(Br)ccc1O [Compound No. 97] | 95.8 | 97.8 |  | 
35 | COc1ccc(-c2ccccc2)cc1NC(=O)c1cc(Cl)ccc1O [Compound No. 141] | 82.4 | 97.9 |  | 
36 | COc1ccc(Oc2ccccc2)cc1NC(=O)c1cc(Cl)ccc1O [Compound No. 171] | 90.6 | 98.1 |  | 
37 | CCCCc1ccc([N+](=O)[O-])cc1NC(=O)c1cc(Cl)ccc1O [Compound No. 176] | 96.0 | 99.5 |  | 
38 | CN(C)c1ccc(O)c(C(=O)Nc2cc(C(F)(F)F)cc(C(F)(F)F)c2)c1 [Compound No. 44] |  | 67.5 |  | 
39 | O=C(Nc1cc(C(F)(F)F)cc(C(F)(F)F)c1)c1ccc(F)cc1O [Compound No. 250] | 94.2 | 95.4 |  | 
40 | CC(C)(C)CC(C)(C)c1ccc(O)c(C(=O)Nc2cc(C(F)(F)F)cc(C(F)(F)F)c2)c1 [Compound No. 60] | 94.0 | 99.1 |  | 
41 | COc1ccc(C(N)=O)cc1NC(=O)c1cc(Cl)ccc1O [Compound No. 163] | 92.1 | 97.4 |  | 

From patent US20060089395A1, “Nf-kb activation inhibitors” (priority 2002, published 2006)
